Laboratory results: patent US20260060947A1 (INSTITUT PASTEUR DE MONTEVIDEO, priority 2019, published 2026)
“And” between values parts separate entries of the source, which are not always exact repeats. Identical values can stand only once. “Also recorded” adds a separate entry of the source.

Legend:
NF-κB-p65 = assay: LPS-induced NF-κB-p65 nuclear translocation in BV2 cells (immunocytochemistry); type: cell-based, murine; details: BANA 10, 20, 30 μM, BA 30 μM or DMF for 3 hrs before LPS 100 ng/ml
Protocol: The effect of BANA on nuclear translocation of NF-κB was studied by immunocytochemistry using murine microglia cell line BV2.
Cells were then treated with BANA (10, 20 and 30 μM) or B.A (30 μM) for 3 hrs. After treatment, cells were stimulated with LPS (100 ng/ml) for 30 minutes. Then, cells were washed and fixed with PFA 4% for 20 minutes at 4° C. and washed with PBS. Immunocytochemistry was performed as follows: cells were permeabilized using 0.5% Triton in PBS for 15 minutes, and then blocked using 5% of BSA for 1 h at room temperature. Rabbit anti-NF-κB-p65 (ab16502, 1/200) and mouse anti-CD11b (BD550219, 1/100) were incubated overnight at 4° C. After that, primary antibodies were removed, washed with PBS 3 times for 10 minutes, and Alexa-fluor-conjugated goat anti-rabbit or goat anti-mouse antibodies (1:1000) were incubated for 2 h at room temperature. After secondary antibodies were removed, cells were covered in glycerol mounting medium with 1/2000 DAPI staining. Cells were analyzed by confocal microscopy using a confocal ZEISS LSM 800. NF-κB-p65+ nuclei were counted and ratio of DAPI to NF-κB-p65 labeling was compared among groups. Data were analyzed using analyzing tools of ImageJ and GraphPad Prism 7 software.

[1] = BANA plasma levels by RP-HPLC after oral administration; type: in vivo, SOD1^G93A rats
Protocol: Only female transgenic rats showing weakness and gait alterations in the […] as the first clinical sign were selected for BANA treatment studies. Rats were divided randomly into BANA or vehicle-treated groups. BANA was freshly prepared in buffer phosphate (PB), and administrated daily at a dose of 100 mg/kg using a curved stainless steel gavage needle with 3-mm ball tip. Rats were treated from day-1 post-paralysis for 15 days or until end-stage when they were euthanized.
For the detection of BANA in plasma, experiments were performed using RP-HPLC analysis (Agilent 1200 HPLC system). Rats were sacrificed and plasma samples were obtained. 100 μL of plasma was incubated with HgCl2 (20 mM) at 37° C. for 30 minutes and after that extracted with 900 μL of acetonitrile (ACN) and injected into HPLC in a 20-40% gradient of B in 10 minutes. BANA plasma concentration was calculated from a standard curve using Salicylate as an internal standard. (CPAK C-18, […], 150 mm×3.9 mm I.D. column; A phase: H2O 0.1% Formic acid; B phase: ACN 0.1% Formic acid; detection at 300 nm)
Rates were dosed with 100 mg/kg/day of BANA administered orally.

[2] = tested on: murine BV2 microglial cell line; assay: Cell viability / toxicity by sulforhodamine B assay; type: cell-based
Protocol: (§1) The murine BV2 microglial cell line was used to analyze the toxicity and anti-inflammatory effects of BANA. Baseline cell viability was established in murine microglia cell line BV2 by sulforhodamine B assay. Briefly, cells were plated in a 96-multiwell plate and incubated with different concentrations of BANA (5-110 μM) for 24 h. After media removal, cells were washed twice with PBS pH=7.4. Cells were fixed with TCA for 1 hour at 4° C. and then washed five times with distilled water. 50 μL of sulforhodamine B 0.4% m/v in 1% acetic acid was added to each well and incubated 30 minutes at room temperature. After staining, the plate was washed at least five times with 1% acetic acid. Once the plate was dry the protein-bound dye was dissolved in 10 mM Tris and the absorbance at 570 nm was read using a microplate spectrophotometer (FIG. 3A).

[3] = as above; type: cell-based; details: mouse, BV2 microglial cells; BV2 cell culture; read-out: LC50
Protocol: as §1

## O=C(O)c1ccc(/C=C/[N+](=O)[O-])cc1 [BANA, (E)-4-(2-nitrovinyl) benzoic acid]
NF-κB-p65
  LPS-induced NF-κB-p65 nuclear translocation: potently prevented; also recorded: inhibits
[1]; SOD1^G93A symptomatic rats, 15 days oral daily 100 mg/kg, plasma incubated with HgCl2 (20 mM, 37° C., 30 min), 100 mg/kg
  [BANA] in plasma, sample + HgCl2: 3.69 μm and 3.45 μm and 3.58 μm
[1]; female, SOD1^G93A transgenic, rat, plasma, po, 100 mg/kg, SOD1^G93A symptomatic rats, 15 days oral daily 100 mg/kg, plasma incubated with HgCl2 (20 mM, 37° C., 30 min), read-out: [BANA] in plasma, sample + HgCl2
  concentration at 15 days: 3.29 µM
[1]; rats, 100 mg/kg/day orally, HPLC
  BANA plasma levels reached: 3.49 µM
[1]; rats, oral 100 mg/kg/day for 5 days
  fraction of plasma BANA covalently linked to proteins: more than 90%
[1]; rats, oral administration
  plasma concentration after oral administration (in words): low micromolar concentration
[2]; Mus musculus, BV-2, BV2 cells, BANA 5-110 μM, 24 h, sulforhodamine B
  IC50: 51.7 µM
[2]; low micromolar concentrations
  toxicity to BV2 microglia: devoid of toxicity
[3]
  CC50 at 24 h: 50 µM
